This is an account of results in PMC3057712 (Molecular Biology of the Cell, 2011).

This test deals with T1, Sfh1 (Saccharomyces cerevisiae, UniProt P33324).
T1 sequence (P33324 1-310): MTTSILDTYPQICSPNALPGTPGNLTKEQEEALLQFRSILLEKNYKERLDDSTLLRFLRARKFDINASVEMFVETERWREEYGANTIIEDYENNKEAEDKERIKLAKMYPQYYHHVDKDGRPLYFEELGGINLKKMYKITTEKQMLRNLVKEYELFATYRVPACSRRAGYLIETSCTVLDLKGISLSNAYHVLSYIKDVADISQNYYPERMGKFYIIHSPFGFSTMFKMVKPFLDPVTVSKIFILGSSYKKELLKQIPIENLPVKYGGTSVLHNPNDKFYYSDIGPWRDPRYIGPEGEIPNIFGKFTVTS
In words: CW X-band EPR, loading from multilamellar liposomes. It is filed as binding. The note with it: 130 μM protein, twofold molar excess of lipid, pH 6.8, 23°C; labelled compound.

In the case of “1-acyl-2-(n-(4,4-dimethyloxazolidine-N-oxyl)stearoyl)-sn-glycero-3-phosphocholines [16-doxyl-PtdCho]”, the “% of total protein loaded” value was ~ 20%.
